Results published in patent publication US20230295157A1, “3-(1H-IMIDAZOL-2-YL)-2,3,8,8A-TETRAHYDROINDOLIZIN-5(1H)-ONE DERIVATIVES USEFUL AS FACTOR XIA INHIBITORS” (JANSSEN PHARMACEUTICA NV, priority 2020, published 2023).
Read-outs that look alike come from different tables or passages of the source.

Assays:
[1] = molecular target: Factor XIa (Homo sapiens (Human), UniProt P03951); test: Factor XIa inhibition assay (FLINT) utilizing a fluorophore-quencher pair peptide substrate; assay type: biochemical; conditions: 30 min preincubation, kinetic reads over 30 min, read-out: FXIa Kin Inh IC50
Chain of Factor XIa (P03951 388-625): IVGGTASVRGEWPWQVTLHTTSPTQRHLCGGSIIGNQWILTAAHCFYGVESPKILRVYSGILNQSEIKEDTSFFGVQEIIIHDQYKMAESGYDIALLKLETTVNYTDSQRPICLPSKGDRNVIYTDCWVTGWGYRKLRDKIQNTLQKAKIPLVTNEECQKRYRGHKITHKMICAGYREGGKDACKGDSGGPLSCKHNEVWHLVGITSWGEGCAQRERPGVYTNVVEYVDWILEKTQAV
Chain of Factor XIa (P03951 19-387 partner): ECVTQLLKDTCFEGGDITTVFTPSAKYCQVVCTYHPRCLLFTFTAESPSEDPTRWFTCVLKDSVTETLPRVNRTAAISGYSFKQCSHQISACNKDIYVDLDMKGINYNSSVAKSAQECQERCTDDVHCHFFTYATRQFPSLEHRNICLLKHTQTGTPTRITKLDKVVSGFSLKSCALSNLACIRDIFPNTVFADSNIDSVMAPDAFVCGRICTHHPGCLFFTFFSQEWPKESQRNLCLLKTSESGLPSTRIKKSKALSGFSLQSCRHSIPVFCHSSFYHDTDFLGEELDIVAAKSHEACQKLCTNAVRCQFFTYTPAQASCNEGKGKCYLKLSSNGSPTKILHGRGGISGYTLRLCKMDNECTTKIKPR
Summary of the method: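 FXIa ([…]) preincubated 30 min with compound (11-point 3-fold dilution, top 100 nM, 2% DMSO), then 15 μM quenched FXI Arg146-based peptide added; Tris pH 7.5, CaCl2, BSA, CHAPS. Fluorescence 485/520 nm read kinetically every 5 min over 30 min at RT; IC50 by 4-parameter fit.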

[2] = molecular target: human plasma kallikrein (Homo sapiens (Human), UniProt P03952); test: Kallikrein inhibition assay (FLINT) utilizing a quenched AMC peptide substrate; assay type: biochemical; conditions: 30 min preincubation, kinetic reads over 30 min, Z-Gly-Pro-Arg-AMC substrate 50 μM; read-out: Kallikrein Kin Inh IC50
Chain of human plasma kallikrein (P03952 391-638): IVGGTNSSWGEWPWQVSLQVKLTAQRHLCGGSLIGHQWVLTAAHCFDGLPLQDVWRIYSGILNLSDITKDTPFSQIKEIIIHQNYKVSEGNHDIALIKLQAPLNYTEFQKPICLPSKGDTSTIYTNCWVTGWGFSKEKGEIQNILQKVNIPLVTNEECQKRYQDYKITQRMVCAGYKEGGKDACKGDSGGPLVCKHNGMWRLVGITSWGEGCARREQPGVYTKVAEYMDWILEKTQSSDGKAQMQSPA
Chain of human plasma kallikrein (P03952 20-390 partner): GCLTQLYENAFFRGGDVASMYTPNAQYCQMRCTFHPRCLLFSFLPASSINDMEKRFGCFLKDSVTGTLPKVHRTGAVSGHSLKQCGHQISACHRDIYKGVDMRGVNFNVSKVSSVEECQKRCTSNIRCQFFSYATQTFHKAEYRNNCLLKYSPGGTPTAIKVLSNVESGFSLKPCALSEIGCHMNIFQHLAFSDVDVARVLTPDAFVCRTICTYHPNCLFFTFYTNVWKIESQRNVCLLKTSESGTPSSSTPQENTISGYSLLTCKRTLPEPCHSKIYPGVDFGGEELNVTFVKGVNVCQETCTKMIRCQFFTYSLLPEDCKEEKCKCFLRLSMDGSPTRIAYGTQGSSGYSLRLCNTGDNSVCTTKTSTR
Summary of the method: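 Enzyme (2 nM final) pre-incubated 30 min at room temperature with compound (11-point, 3-fold, top 1 μM, 2% DMSO), then 50 μM Z-Gly-Pro-Arg-AMC added in Tris pH 7.5 buffer. Kinetic fluorescence 340/440 nm every 5 min over 30 min; IC50 from 4-parameter logistic fit.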

[3] = 5Fam-KLTRAETV-K5Tamra substrate 15 μM
[4] = 5Fam-[…]-K5Tamra substrate 15 μM

**Q.** Which results are given for `O=C1Cc2ccc(-c3cnc([C@@H]4CCC5CC(c6c(-n7cnnn7)ccc(Cl)c6F)=CC(=O)N54)[nH]3)c(F)c2N1` (stereo partly drawn) [Example 383, 6-(2-((3S)-7-(3-chloro-2-fluoro-6-(1H-tetrazol-1-yl)phenyl)-5-oxo-1,2,3,5,8,8a-hexahydroindolizin-3-yl)-1H-imidazol-5-yl)-7-fluoroindolin-2-one]?
**A.** IC50 [1, 3]: 3.1 nM; IC50 [2]: 12.6 nM

**Q.** `[2H]c1nc(C2CCC3CC(c4c(-n5cnnn5)ccc(Cl)c4F)=CC(=O)N32)[nH]c1-c1ccc(N)nc1F` (stereo in doubt) [Example 154, (3S,8aR)-3-[5-(6-amino-2-fluoro-3-pyridyl)-4-deuterio-1H-imidazol-2-yl]-7-[3-chloro-2-fluoro-6-(tetrazol-1-yl)phenyl]-2,3,8,8a-tetrahydro-1H-indolizin-5-one] was tested. Which IC50 [1, 4] did it give?
**A.** 0.4 nM

**Q.** And the IC50 [2]?
**A.** 5.7 nM

**Q.** Which IC50 [1, 3] does the source give for `CCNc1nccc(-c2cnc([C@@H]3CC[C@@H]4CC(c5c(-n6cnnn6)ccc(Cl)c5F)=CC(=O)N43)[nH]2)c1F` [Example 390, (3S,8aR)-7-(3-chloro-2-fluoro-6-(1H-tetrazol-1-yl)phenyl)-3-(5-(2-(ethylamino)-3-fluoropyridin-4-yl)-1H-imidazol-2-yl)-2,3,8,8a-tetrahydroindolizin-5(1H)-one] here?
**A.** 0.4 nM

**Q.** What about the IC50 [2] of the same compound?
**A.** 1.3 nM

**Q.** Which results are given for `O=C(c1nccc(-c2cnc([C@@H]3CC[C@@H]4CC(c5c(-n6cnnn6)ccc(Cl)c5F)=CC(=O)N43)[nH]2)c1F)N1CC(F)(F)C1` [Example 94, (3S,8aR)-7-(3-Chloro-2-fluoro-6-(1H-tetrazol-1-yl)phenyl)-3-(5-(2-(3,3-difluoroazetidine-1-carbonyl)-3-fluoropyridin-4-yl)-1H-imidazol-2-yl)-2,3,8,8a-tetrahydroindolizin-5(1H)-one]?
**A.** IC50 [1, 3]: 12.3 nM; IC50 [2]: 122 nM

**Q.** For `O=C1C=C(c2cc(Cl)ccc2-n2cnnn2)C[C@H]2CC[C@@H](c3ncc(-c4ccc(NC56CC(C5)C6)nc4F)[nH]3)N12` [Example 83], which IC50 [1, 3] is on record?
**A.** 17.4 nM

**Q.** And the IC50 [2]?
**A.** 57.5 nM

**Q.** `O=C1C=C(c2c(-n3cnnn3)ccc(Cl)c2F)C[C@H]2CC[C@@H](c3nc(-c4ccc5[nH]ncc5c4)c[nH]3)N12` [Example 43, (3S,8aR)-3-(4-(1H-indazol-5-yl)-1H-imidazol-2-yl)-7-(3-chloro-2-fluoro-6-(1H-tetrazol-1-yl)phenyl)-2,3,8,8a-tetrahydroindolizin-5(1H)-one] was tested. Which IC50 [1, 3] did it give?
**A.** 2.1 nM

**Q.** What about the IC50 [2] of the same compound?
**A.** 4 nM

**Q.** Which results are given for `CCOC(=O)Nc1ccncc1-c1c[nH]c([C@@H]2CCC3CC(c4c(-n5cnnn5)ccc(Cl)c4F)=CC(=O)N32)n1` (stereo partly drawn) [Example 251, Ethyl N-[3-[2-[(3S)-7-[3-chloro-2-fluoro-6-(tetrazol-1-yl)phenyl]-5-oxo-2,3,8,8a-tetrahydro-1H-indolizin-3-yl]-1H-imidazol-4-yl]-4-pyridyl]carbamate]?
**A.** IC50 [1, 3]: 32.2 nM; IC50 [2]: 226 nM

**Q.** `O=C1C=C(c2c(-n3cnnn3)ccc(Cl)c2F)C[C@H]2CC[C@@H](c3ncc(-c4ccc5[nH]c(=O)[nH]c5c4)[nH]3)N12` (single isomer, unassigned) [Example 286] was tested. Which IC50 [1, 3] did it give?
**A.** 1.5 nM

**Q.** And the IC50 [2]?
**A.** 1.1 nM

**Q.** How did the IC50 [1, 3] turn out when `O=C1C=C(c2cc(Cl)ccc2-n2cnnn2)C[C@H]2CC[C@@H](c3nc(F)c(-c4ccnc(CO)c4F)[nH]3)N12` [Example 80, (3S,8aR)-7-[5-chloro-2-(tetrazol-1-yl)phenyl]-3-[4-fluoro-5-[3-fluoro-2-(hydroxymethyl)-4-pyridyl]-1H-imidazol-2-yl]-2,3,8,8a-tetrahydro-1H-indolizin-5-one] was run?
**A.** 1.3 nM

**Q.** And the IC50 [2]?
**A.** 11.2 nM

**Q.** With `Nc1nccc(-c2cnc([C@@H]3CC[C@@H]4CC(c5c(-n6cnnn6)ccc(Cl)c5F)=CC(=O)N43)[nH]2)c1Cl` [Example 380, (3S,8aR)-3-(5-(2-amino-3-chloropyridin-4-yl)-1H-imidazol-2-yl)-7-(3-chloro-2-fluoro-6-(1H-tetrazol-1-yl)phenyl)-2,3,8,8a-tetrahydroindolizin-5(1H)-one] as the compound, how does the IC50 [1, 3] read?
**A.** 0.8 nM

**Q.** What about the IC50 [2] of the same compound?
**A.** 4.2 nM

**Q.** How did the IC50 [1, 3] turn out when `NC(=O)c1ncc(-c2cnc([C@@H]3CC[C@@H]4CC(c5c(-n6cc(Cl)nn6)ccc(Cl)c5F)=CC(=O)N43)[nH]2)s1` [Example 208, 5-(2-((3S,8aR)-7-(3-Chloro-6-(4-chloro-1H-1,2,3-triazol-1-yl)-2-fluorophenyl)-5-oxo-1,2,3,5,8,8a-hexahydroindolizin-3-yl)-1H-imidazol-5-yl)thiazole-2-carboxamide] was run?
**A.** 4.6 nM

**Q.** And the IC50 [2]?
**A.** 7.8 nM

**Q.** For `O=C1C=C(c2c(-n3cnnn3)ccc(Cl)c2F)C[C@H]2CC[C@@H](c3nc(-c4ccc5[nH]cnc5c4)c[nH]3)N12` [Example 42, (3S,8aR)-3-(4 (1H-benzo[d]imidazol-5-yl)-1H-imidazol-2-yl)-7-(3-chloro-2-fluoro-6-(1H-tetrazol-1-yl)phenyl)-2,3,8,8a-tetrahydroindolizin-5(1H)-one], which IC50 [1, 3] is on record?
**A.** 1 nM

**Q.** And the IC50 [2]?
**A.** 4.6 nM

**Q.** `CC1(C)C[C@@H](c2ncc(-c3ccc(N)nc3Cl)[nH]2)N2C(=O)C=C(c3c(-n4cnnn4)ccc(Cl)c3F)CC21` (stereo partly drawn) [Example 349, (3S)-3-(5-(6-Amino-2-chloropyridin-3-yl)-1H-imidazol-2-yl)-7-(3-chloro-2-fluoro-6-(1H-tetrazol-1-yl)phenyl)-1,1-dimethyl-2,3,8,8a-tetrahydroindolizin-5(1H)-one] was tested. Which IC50 [1, 3] did it give?
**A.** 0.6 nM

**Q.** What about the IC50 [2] of the same compound?
**A.** 5.6 nM

**Q.** With `O=C1C=C(c2c(-n3cc(C(F)(F)F)nn3)ccc(Cl)c2F)C[C@@H]2CC[C@H](c3ncc(-c4c[nH]c5ncccc45)[nH]3)N12` (single isomer, unassigned) [Example 140, (3*R,8aS)-3-(5-(1H-pyrrolo[2,3-b]pyridin-3-yl)-1H-imidazol-2-yl)-7-(3-chloro-2-fluoro-6-(4-(trifluoromethyl)-1H-1,2,3-triazol-1-yl)phenyl)-2,3,8,8a-tetrahydroindolizin-5(1H)-one] as the compound, how does the IC50 [1, 3] read?
**A.** 2.9 nM

**Q.** And the IC50 [2]?
**A.** 6.2 nM

**Q.** Which IC50 [1, 3] does the source give for `O=C1C=C(c2c(-n3cnnn3)ccc(Cl)c2F)CC2CC[C@@H](c3ncc(-c4ccc5[nH]c(=O)[nH]c5c4)[nH]3)N12` (stereo partly drawn) [Example 312, 5-(2-((3S)-7-(3-Chloro-2-fluoro-6-(1H-tetrazol-1-yl)phenyl)-5-oxo-1,2,3,5,8,8a-hexahydroindolizin-3-yl)-1H-imidazol-5-yl)-1H-benzo[d]imidazol-2(3H)-one] here?
**A.** 0.3 nM

**Q.** What about the IC50 [2] of the same compound?
**A.** 0.6 nM

**Q.** With `[2H]c1nc([C@@H]2CC[C@@H]3CC(c4c(-n5cnnn5)ccc(Cl)c4F)=CC(=O)N32)[nH]c1-c1ccnc(CO)c1F` [Example 117, (3S,8aR)-7-(3-chloro-2-fluoro-6-(1H-tetrazol-1-yl)phenyl)-3-(5-(3-fluoro-2-(hydroxymethyl)pyridin-4-yl)-1H-imidazol-2-yl-4-d)-2,3,8,8a-tetrahydroindolizin-5(1H)-one] as the compound, how does the IC50 [1, 3] read?
**A.** 2.9 nM

**Q.** What about the IC50 [2] of the same compound?
**A.** 24.8 nM

**Q.** What does the source list for `O=C1C=C(c2c(-n3cnnn3)ccc(Cl)c2F)C[C@H]2CC[C@@H](c3ncc(-c4ccnc([C@@H](O)C(F)(F)F)c4)[nH]3)N12` (relative stereo) [Example 175, (3S*,8 aR*)-7-(3-chloro-2-fluoro-6-(1H-tetrazol-1-yl)phenyl)-3-(5-(2-((R*)-2,2,2-trifluoro-1-hydroxyethyl)pyridin-4-yl)-1H-imidazol-2-yl)-2,3,8,8a-tetrahydroindolizin-5(1H)-one]?
**A.** IC50 [1, 4]: 9.5 nM; IC50 [2]: 30.3 nM
